Consider 21 compounds from patent US12612360B2 (Sanofi, priority 2020, dated 2026).

The target in this experiment is T1, ERα (Homo sapiens, UniProt P03372).
T1 construct: host or cells: MCF7
T1 sequence (P03372 1-595): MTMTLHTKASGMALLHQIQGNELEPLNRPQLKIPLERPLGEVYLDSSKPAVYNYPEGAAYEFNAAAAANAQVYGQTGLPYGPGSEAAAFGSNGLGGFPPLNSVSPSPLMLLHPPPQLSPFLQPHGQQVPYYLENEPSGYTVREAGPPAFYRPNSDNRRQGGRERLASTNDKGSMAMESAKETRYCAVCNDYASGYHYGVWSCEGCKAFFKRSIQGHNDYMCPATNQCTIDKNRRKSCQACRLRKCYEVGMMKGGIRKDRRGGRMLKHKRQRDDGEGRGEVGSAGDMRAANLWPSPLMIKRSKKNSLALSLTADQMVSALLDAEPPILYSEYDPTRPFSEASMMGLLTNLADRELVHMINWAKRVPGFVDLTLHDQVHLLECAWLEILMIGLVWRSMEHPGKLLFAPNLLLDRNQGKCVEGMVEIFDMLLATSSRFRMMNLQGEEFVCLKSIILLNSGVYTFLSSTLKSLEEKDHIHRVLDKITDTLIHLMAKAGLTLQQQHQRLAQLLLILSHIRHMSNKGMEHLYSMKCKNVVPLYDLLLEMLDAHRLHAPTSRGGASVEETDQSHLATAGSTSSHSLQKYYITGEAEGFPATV
The experiment is described as follows: Estrogen receptor degradation activity: breast cancer cell ERα in cell western assay (MCF7 cells). In kind it is cell-based. The conditions noted are these: for % Degradation At 0.3 μM: 4 hours, relative to fulvestrant 0.1 μM positive control; for DC50: 4 hours post compound addition, concentration which degrades 50% of the estrogen receptor, read-out: Degradation IC50. Summed up: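 In-cell western readout: ERα immunofluorescence (Alexa 488) normalised to DNA signal (Syto-64) after formalin fixation. Compounds dosed for 4 h on MCF7 cells in stripped-serum, phenol-red-free medium over nine 1:5 steps, 0.3 to […] final; fulvestrant 0.1 μM control. IC50 in nM for 50% ERα degradation.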

For `Cc1cc(C2=C(c3ccc(F)cc3C)CCCc3cc(C(=O)O)ccc32)c(C)cc1C=C1CN(CCCF)C1` [Example 45, 8-(4-fluoro-2-methylphenyl)-9-(4-((1-(3-fluoropropyl)azetidin-3-ylidene)methyl)-2,5-dimethylphenyl)-6,7-dihydro-5H-benzo[7]annulene-3-carboxylic acid], the “% Degradation At 0.3 μM” value is 89% and the DC50 stood at 0.7 nM.
The matching figures for `Cc1cc(F)ccc1C1=C(c2ccc(C=C3CN(CCCF)C3)c(C#N)c2)c2ccc(C(=O)O)cc2CCC1` [Example 46, 9-(3-cyano-4-((1-(3-fluoropropyl)azetidin-3-ylidene)methyl)phenyl)-8-(4-fluoro-2-methylphenyl)-6,7-dihydro-5H-benzo[7]annulene-3-carboxylic acid]: 94% and 6 nM.
The matching figures for `O=C(O)c1ccc2c(c1)CCCC(c1cccc(Cl)c1F)=C2c1ccc(C=C2CN(CCCF)C2)cc1` [Example 47, 8-(3-chloro-2-fluorophenyl)-9-(4-((1-(3-fluoropropyl)azetidin-3-ylidene)methyl)phenyl)-6,7-dihydro-5H-benzo[7]annulene-3-carboxylic acid]: 91% and 0.3 nM.
For the compound `Cc1cccc(C2=C(c3ccc(C=C4CN(CCCF)C4)cc3)c3ccc(C(=O)O)cc3CCC2)c1F` [Example 48, 8-(2-fluoro-3-methylphenyl)-9-(4-((1-(3-fluoropropyl)azetidin-3-ylidene)methyl)phenyl)-6,7-dihydro-5H-benzo[7]annulene-3-carboxylic acid], the “% Degradation At 0.3 μM” value was found to be 95% and the DC50 stood at 0.3 nM.
The matching figures for `O=C(O)c1ccc2c(c1)CCCC(c1ccc(C(F)(F)F)cc1F)=C2c1ccc(C=C2CN(CCCF)C2)cc1` [Example 49, 8-(2-fluoro-4-(trifluoromethyl)phenyl)-9-(4-((1-(3-fluoropropyl)azetidin-3-ylidene)methyl)phenyl)-6,7-dihydro-5H-benzo[7]annulene-3-carboxylic acid]: 98% and 0.3 nM.
The like results for `O=C(O)c1ccc2c(c1)CCCC(c1ccc(C(F)(F)F)cc1Cl)=C2c1ccc(C=C2CN(CCCF)C2)cc1` [Example 50, 8-(2-chloro-4-(trifluoromethyl)phenyl)-9-(4-((1-(3-fluoropropyl)azetidin-3-ylidene)methyl)phenyl)-6,7-dihydro-5H-benzo[7]annulene-3-carboxylic acid] were, in that order, 93% and 0.1 nM.
The like results for `Cc1cc(F)c(C2=C(c3ccc(C=C4CN(CCCF)C4)cc3)c3ccc(C(=O)O)cc3CCC2)c(F)c1` [Example 51, 8-(2,6-difluoro-4-methylphenyl)-9-(4-((1-(3-fluoropropyl)azetidin-3-ylidene)methyl)phenyl)-6,7-dihydro-5H-benzo[7]annulene-3-carboxylic acid] were, in that order, 95% and 0.4 nM.
On to `O=C(O)c1ccc2c(c1)CCCC(c1ccc(F)cc1F)=C2c1c(F)cc(C=C2CN(CCCF)C2)cc1F` [Example 52, 9-(2,6-difluoro-4-((1-(3-fluoropropyl)azetidin-3-ylidene)methyl)phenyl)-8-(2,4-difluorophenyl)-6,7-dihydro-5H-benzo[7]annulene-3-carboxylic acid], for which the “% Degradation At 0.3 μM” value turned out to be 97% and the DC50 was 0.3 nM.
In the case of `O=C(O)c1ccc2c(c1)CCCC(c1ccc(F)cc1F)=C2c1ccc(C=C2CN(CCCF)C2)c(F)c1` [Example 53, 8-(2,4-difluorophenyl)-9-(3-fluoro-4-((1-(3-fluoropropyl)azetidin-3-ylidene)methyl)phenyl)-6,7-dihydro-5H-benzo[7]annulene-3-carboxylic acid], the “% Degradation At 0.3 μM” value amounted to 94% and the DC50 was determined as 0.3 nM.
The like results for `O=C(O)c1ccc2c(c1)CCCC(c1ccc(F)cc1F)=C2c1ccc(C=C2CN(CCCF)C2)cc1` [Example 54, 8-(2,4-difluorophenyl)-9-(4-((1-(3-fluoropropyl)azetidin-3-ylidene)methyl)phenyl)-6,7-dihydro-5H-benzo[7]annulene-3-carboxylic acid] were, in that order, 93% and 0.4 nM.
For the compound `O=C(O)c1ccc2c(c1)CCCC(c1cccc(F)c1F)=C2c1ccc(C=C2CN(CCCF)C2)cc1` [Example 55, 8-(2,3-difluorophenyl)-9-(4-((1-(3-fluoropropyl)azetidin-3-ylidene)methyl)phenyl)-6,7-dihydro-5H-benzo[7]annulene-3-carboxylic acid], the “% Degradation At 0.3 μM” value is recorded as 94% and the DC50 stood at 1 nM.
The matching figures for `O=C(O)c1ccc2c(c1)CCCC(c1cccc(C(F)(F)F)c1F)=C2c1ccc(C=C2CN(CCCF)C2)cc1` [Example 56, 8-(2-fluoro-3-(trifluoromethyl)phenyl)-9-(4-((1-(3-fluoropropyl)azetidin-3-ylidene)methyl)phenyl)-6,7-dihydro-5H-benzo[7]annulene-3-carboxylic acid]: 93% and 0.2 nM.
The like results for `Cc1ccc(C2=C(c3ccc(C=C4CN(CCCF)C4)cc3)c3ccc(C(=O)O)cc3CCC2)c(F)c1` [Example 57, 8-(2-fluoro-4-methylphenyl)-9-(4-((1-(3-fluoropropyl)azetidin-3-ylidene)methyl)phenyl)-6,7-dihydro-5H-benzo[7]annulene-3-carboxylic acid] were, in that order, 93% and 0.2 nM.
The like results for `O=C(O)c1ccc2c(c1)CCCC(c1ccc(Cl)cc1F)=C2c1ccc(C=C2CN(CCCF)C2)cc1` [Example 58, 8-(4-chloro-2-fluorophenyl)-9-(4-((1-(3-fluoropropyl)azetidin-3-ylidene)methyl)phenyl)-6,7-dihydro-5H-benzo[7]annulene-3-carboxylic acid] were, in that order, 99% and 0.2 nM.
Consider `O=C(O)c1ccc2c(c1)CCCC(c1ccc(F)cc1F)=C2c1cc(F)c(C=C2CN(CCCF)C2)c(F)c1` [Example 59, 9-(3,5-difluoro-4-((1-(3-fluoropropyl)azetidin-3-ylidene)methyl)phenyl)-8-(2,4-difluorophenyl)-6,7-dihydro-5H-benzo[7]annulene-3-carboxylic acid], for which the “% Degradation At 0.3 μM” value is reported as 93% and the DC50 was found to be 0.4 nM.
Turning to `O=C(O)c1ccc2c(c1)CCCC(C1CCOCC1)=C2c1ccc(C=C2CN(CCCF)C2)cc1` [Example 60, 9-(4-((1-(3-Fluoropropyl)azetidin-3-ylidene)methyl)phenyl)-8-(tetrahydro-2H-pyran-4-yl)-6,7-dihydro-5H-benzo[7]annulene-3-carboxylic acid], the “% Degradation At 0.3 μM” value is listed as 91% and the DC50 was found to be 2.3 nM.
In the case of `Cc1cc(F)ccc1C1=C(c2cc(F)c(C=C3CN(CCCF)C3)cc2C)c2ccc(C(=O)O)cc2CCC1.Cl` [Example 61, 8-(4-fluoro-2-methylphenyl)-9-(5-fluoro-4-((1-(3-fluoropropyl)azetidin-3-ylidene)methyl)-2-methylphenyl)-6,7-dihydro-5H-benzo[7]annulene-3-carboxylic acid hydrochloride], the “% Degradation At 0.3 μM” value is on record as 93% and the DC50 was determined as 0.8 nM.
The matching figures for `Cc1cc(F)ccc1C1=C(c2c(C)cc(C=C3CN(CCCF)C3)cc2F)c2ccc(C(=O)O)cc2CCC1.Cl` [Example 62, 8-(4-fluoro-2-methylphenyl)-9-(2-fluoro-4-((1-(3-fluoropropyl)azetidin-3-ylidene)methyl)-6-methylphenyl)-6,7-dihydro-5H-benzo[7]annulene-3-carboxylic acid hydrochloride]: 99% and 0.5 nM.
The matching figures for `Cc1c(C2=C(c3ccc(Cl)cc3Cl)CCCc3cc(C(=O)O)ccc32)ccc(C=C2CN(CCCF)C2)c1F` [Example 63, 8-(2,4-dichlorophenyl)-9-(3-fluoro-4-((1-(3-fluoropropyl)azetidin-3-ylidene)methyl)-2-methylphenyl)-6,7-dihydro-5H-benzo[7]annulene-3-carboxylic acid]: 90% and 0.7 nM.
The like results for `Cc1cc(C2=C(c3ccc(Cl)cc3Cl)CCCc3cc(C(=O)O)ccc32)ccc1C=C1CN(CCCF)C1` [Example 64, 8-(2,4-dichlorophenyl)-9-(4-((1-(3-fluoropropyl)azetidin-3-ylidene)methyl)-3-methylphenyl)-6,7-dihydro-5H-benzo[7]annulene-3-carboxylic acid] were, in that order, 93% and 0.3 nM.
Regarding `Cc1cc(F)ccc1C1=C(c2cc(F)c(C=C3CN(CCCF)C3)cc2F)c2ccc(C(=O)O)cc2CCC1.Cl` [Example 65, 9-(2,5-difluoro-4-((1-(3-fluoropropyl)azetidin-3-ylidene)methyl)phenyl)-8-(4-fluoro-2-methylphenyl)-6,7-dihydro-5H-benzo[7]annulene-3-carboxylic acid hydrochloride], the “% Degradation At 0.3 μM” value is given as 95% and the DC50 was 0.3 nM.
